Our source for the IC50 values is patent US9624228B2, “Inhibitors of ERK and methods of use” (KURA ONCOLOGY, INC., priority 2013, dated 2017).

Some results are limits rather than exact numbers.

ERK2 enzyme, sequence (P28482 whole entry): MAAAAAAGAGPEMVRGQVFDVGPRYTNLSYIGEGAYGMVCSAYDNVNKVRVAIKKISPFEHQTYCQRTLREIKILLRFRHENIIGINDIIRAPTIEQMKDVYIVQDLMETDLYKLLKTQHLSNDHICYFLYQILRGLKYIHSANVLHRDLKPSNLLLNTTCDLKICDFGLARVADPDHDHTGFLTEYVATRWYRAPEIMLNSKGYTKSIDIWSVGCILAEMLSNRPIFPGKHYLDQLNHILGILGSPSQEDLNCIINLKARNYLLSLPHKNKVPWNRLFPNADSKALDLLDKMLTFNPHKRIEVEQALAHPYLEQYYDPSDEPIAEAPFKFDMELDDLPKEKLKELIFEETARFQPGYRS

The first experiment concerns the target ERK2 enzyme (Homo sapiens (Human), UniProt P28482). Nature of the experiment: Inhibition assay of ERK (Z'-LYTE kinase assay, Ser/Thr 3 peptide substrate). It is filed as biochemical. Conditions: In vitro ERK2 enzyme, 100 μM ATP.
`Cc1cc(-c2n[nH]c3cc4c(cc23)CN([C@@H]2CCCN(Cc3csc(C)n3)C2)C(=O)N4)ccn1` [Compound 140] gave an IC50 of less than 50 nM.
`COc1cc(-c2n[nH]c3cc4c(cc23)CN(Cc2ccc(F)c(Cl)c2)C(=O)N4)ccn1` [Compound 38] displayed a 50% inhibitory concentration (IC50) of less than 50 nM.
For the compound `C[C@H](c1cccc(Cl)c1)N1Cc2cc3c(-c4ccnnc4)n[nH]c3cc2NC1=O` [Compound 111], the IC50 was less than 50 nM.
With `COc1ccc(-c2n[nH]c3cc4c(cc23)CN(CCc2ccc(F)cc2)C(=O)N4)cn1` [Compound 79], the half-inhibitory concentration (IC50) was less than 50 nM.
Same read-out and setting: the same measure for `COc1ncccc1CN1Cc2cc3c(-c4ccnc(C)c4)n[nH]c3cc2NC1=O` [Compound 9]: less than 50 nM; for `CCC(=O)NCCCN1Cc2cc3c(-c4cnc(OC)nc4)n[nH]c3cc2NC1=O` [Compound 105]: less than 50 nM.
The compound `Cc1cc(-c2n[nH]c3cc4c(cc23)CN(Cc2ccc(Cl)cc2)C(=O)N4)ccn1` [Compound 14] gave an IC50 of less than 50 nM.
For the compound `Cc1cc(-c2n[nH]c3cc4[nH]c(=O)c([C@H](C)c5ccccc5)cc4cc23)ccn1` [Compound 84], the IC50 was less than 50 nM.
Same read-out and setting: the result for `O=C1Nc2cc3[nH]nc(-c4ccncc4)c3cc2CN1Cc1ccccc1` [Compound 1, 6-benzyl-3-(pyridin-4-yl)-1,5,6,8-tetrahydro-7H-pyrazolo[4,3-g]quinazolin-7-one] reads less than 50 nM; that for `Cc1cc(-c2n[nH]c3cc4c(cc23)CN(CCNCc2ccc(F)c(Cl)c2)C(=O)N4)ccn1` [Compound 173], less than 50 nM; that for `Cc1cc(-c2n[nH]c3cc4c(cc23)CN(C2CCNCC2)C(=O)N4)ccn1` [Compound 34], 50 to 250 nM.
As to `Cc1cc(-c2n[nH]c3cc4c(cc23)CN(CCNCc2ccc(F)cc2)C(=O)N4)ccn1` [Compound 175], the IC50 is less than 50 nM.
Compound `COc1cccc(F)c1CN1CCC[C@@H](N2Cc3cc4c(-c5ccnc(C)c5)n[nH]c4cc3NC2=O)C1` [Compound 144] yielded an IC50 of less than 50 nM.
Still for that read-out and setting: the result for `COc1ncc(-c2n[nH]c3cc4c(cc23)CCN(Cc2ccc(F)cc2)C(=O)N4)cn1` [Compound 130] reads 50 to 250 nM; that for `Cc1cc(-c2n[nH]c3cc4c(cc23)CN([C@@H]2CCCN(CCC(F)(F)F)C2)C(=O)N4)ccn1` [Compound 178], less than 50 nM; that for `Cc1cc(-c2n[nH]c3cc4c(cc23)CN([C@@H]2CCCN(CC3CCCC3)C2)C(=O)N4)ccn1` [Compound 138], 50 to 250 nM.
The compound `O=C1Nc2cc3[nH]nc(-c4ccnnc4)c3cc2CN1Cc1ccc(F)cc1` [Compound 97] registered a half-maximal inhibitory concentration (IC50) of less than 50 nM.
`O=C1Nc2cc3[nH]nc(-c4ccnnc4)c3cc2CN1Cc1cccc(C(F)(F)F)c1` [Compound 124] returned an IC50 of less than 50 nM.
Still for that read-out and setting: the result for `Cc1cc(-c2n[nH]c3cc4c(cc23)CN([C@@H]2CCCN(Cc3cc(C5CC5)on3)C2)C(=O)N4)ccn1` [Compound 188] reads less than 50 nM; that for `Cc1cc(-c2n[nH]c3cc4c(cc23)CN([C@@H]2CCCN(CCc3ccc(F)cc3)C2)C(=O)N4)ccn1` [Compound 167], 50 to 250 nM; that for `COc1ncc(-c2n[nH]c3cc4c(cc23)CN(Cc2ccc(F)c(Cl)c2)C(=O)N4)cn1` [Compound 37], less than 50 nM.
Same read-out and setting: the same measure for `O=C1Nc2cc3[nH]nc(-c4cn[nH]c4)c3cc2CN1Cc1ccc(F)c(Cl)c1` [Compound 48]: less than 50 nM.
Same read-out and setting: the same measure for `O=C1Nc2cc3[nH]nc(N4CCOCC4)c3cc2CN1Cc1cccc(Cl)c1` [Compound 78]: less than 50 nM; for `Cc1cc(-c2n[nH]c3cc4c(cc23)CN([C@@H]2CCCN(CCC(C)(C)C)C2)C(=O)N4)ccn1` [Compound 136]: 50 to 250 nM.
Regarding `COc1ncc(-c2n[nH]c3cc4c(cc23)CN(CCc2cccc(Cl)c2)C(=O)N4)cn1` [Compound 86], the IC50 was less than 50 nM.

The same experiment, now with this note: In vitro, ERK2 enzyme 0.47 ng/μL, 100 μM ATP.
As for `Cc1ncc(-c2n[nH]c3cc4c(cc23)CN([C@@H]2CN(CC(F)(F)F)C[C@H]2c2ccccc2)C(=O)N4)cn1` [Compound 349], the IC50 is less than 50 nM.
Compound `Cc1cc(-c2n[nH]c3cc4c(cc23)CN(C2CCCC2)C(=O)N4)cc(C)n1` [Compound 239] had an IC50 of less than 50 nM.
In turn, `COc1cc(-c2n[nH]c3cc4c(cc23)CN([C@@H]2CN(C)C[C@H]2c2ccccc2)C(=O)N4)ccn1` (mixture of isomers) [Compound 354] displayed an IC50 of less than 50 nM.
In the case of `CC(c1ccccc1)c1cc2cc3c(-c4ccncc4)n[nH]c3cc2[nH]c1=O` (centres unmarked) [Compound 326], the IC50 was less than 50 nM.
The compound `COc1ncc(-c2n[nH]c3cc4c(cc23)CN([C@@H]2CCCN(Cc3cccs3)C2)C(=O)N4)cn1` [Compound 295] showed an IC50 of less than 50 nM.
In turn, `Cc1cc(-c2n[nH]c3cc4c(cc23)CN([C@@H]2CCN(CCC(C)C)C2)C(=O)N4)ccn1` [Compound 207] gave an IC50 of 50 to 250 nM.
For `Cc1cc(-c2n[nH]c3cc4c(cc23)CN(C2CCC(F)(F)CC2)C(=O)N4)ccn1` [Compound 224], the IC50 was less than 50 nM.
In turn, `Cc1cc(-c2n[nH]c3cc4c(cc23)CN([C@@H]2CCN(C(C)C(F)(F)F)C2)C(=O)N4)ccn1` (some centres unmarked) [Compound 267] had an IC50 of less than 50 nM.
The compound `Cc1ccc(-c2n[nH]c3cc4[nH]c(=O)c(C5CCCN(Cc6ccccc6)C5)cc4cc23)cn1` (centres unmarked) [Compound 373] had an IC50 of 50 to 250 nM.
The same measure, in the same setting: the same measure for `Cc1cc(-c2n[nH]c3cc4[nH]c(=O)c(C5CCCN(Cc6ccccc6)C5)cc4cc23)cc(C)n1` (centres unmarked) [Compound 360]: 50 to 250 nM; for `COc1ccc(-c2n[nH]c3cc4c(cc23)CN([C@@H]2CCCN(Cc3ccccc3)C2)C(=O)N4)cn1` [Compound 272]: less than 50 nM; for `Cc1cc(-c2n[nH]c3cc4c(cc23)CN([C@@H]2CN(CCO)C[C@H]2c2ccccc2)C(=O)N4)ccn1` (mixture of isomers) [Compound 376]: less than 50 nM.
Same read-out and setting: the result for `Cn1cc(-c2n[nH]c3cc4c(cc23)CN([C@@H]2CCN(CC(F)(F)F)C2)C(=O)N4)cn1` [Compound 259] reads less than 50 nM.
The same measure, in the same setting: the same measure for `Cc1cc(-c2n[nH]c3cc4c(cc23)CN(Cc2ccccc2)C(=O)N4)ccn1` [Compound 372]: less than 50 nM.
The compound `Cn1cc(-c2n[nH]c3cc4c(cc23)CN([C@@H]2CN(CC(F)(F)F)C[C@H]2c2ccccc2)C(=O)N4)ccc1=O` [Compound 346] registered an IC50 of less than 50 nM.
Consider `Cc1cc(-c2n[nH]c3cc4c(cc23)CN([C@@H]2CN(CC(F)(F)F)C[C@H]2C(C)(C)C)C(=O)N4)ccn1` [Compound 329], for which the IC50 was in the range of 250 to 1000 nM.
`Cc1cc(-c2n[nH]c3cc4c(cc23)CN([C@@H]2CN(CC(F)(F)F)C[C@H]2C(F)(F)F)C(=O)N4)ccn1` [Compound 331] yielded an IC50 of less than 50 nM.
Still for that read-out and setting: the same measure for `Cc1cc(-c2n[nH]c3cc4c(cc23)CN([C@@H]2CCCN(C3CCC3)C2)C(=O)N4)ccn1` [Compound 210]: 50 to 250 nM.
On the same count and under the same terms, the result for `CC(c1ccccc1)c1cc2cc3c(NC4CCOCC4)n[nH]c3cc2[nH]c1=O` (centres unmarked) [Compound 338] reads less than 50 nM.
In turn, `Cc1cc(-c2n[nH]c3cc4c(cc23)CN([C@@H]2CN(CC(F)(F)F)C[C@H]2c2ccccc2)C(=O)N4)ccn1` [Compound 222] gave a half-maximal inhibitory concentration (IC50) of 50 to 250 nM.
As for `Cn1cc(-c2n[nH]c3cc4c(cc23)CN([C@@H]2CCCN(Cc3cccs3)C2)C(=O)N4)cn1` [Compound 298], the 50% inhibitory concentration (IC50) is less than 50 nM.
`Cn1nccc1-c1n[nH]c2cc3c(cc12)CN([C@@H]1CCCN(Cc2ccccc2)C1)C(=O)N3` [Compound 261] came in with an IC50 of less than 50 nM.

What is called IC50 is the concentration that inhibits the measured activity by half. A lower IC50 goes with greater potency in that assay.
